{
  "source": "patent US7834148B2",
  "about": "“Protein phosphorylation imaging systems, methods of making phosphorylation imaging systems, and methods of use thereof” (Stanford University, priority 2006, dated 2010)",
  "key": {"Akt kinase activity [1]": {"system": "Akt kinase activity", "assay": "Akt kinase sensor complemented FL activity, bioluminescence imaging of intact 293T/AS1T and 293T/AS1A stable cells", "format": "cell-based, human", "method": "Complemented FL activity at each time point was determined by bioluminescence imaging of intact cells by addition of D-luciferin (FIG. 7a), prior to normalization for protein content (FIG. 7b).\nFL activities in intact cells were determined by bioluminescence imaging of intact cells as described above. Cells were lysed in 1% NP40 buffer (Cell Signaling, Beverly, Mass.) for 15 mins on ice followed by centrifugation at 1×10^4 g to remove cell debris. Protein concentrations were determined by Biorad protein Dc assay (Biorad). FL activities were normalized to protein content and then to that of carrier control treated cells and expressed as normalized FL activity±standard error of means (S.E.M.)"}, "Akt kinase": {"system": "Akt kinase", "assay": "In vitro Akt kinase assay in cell lysates using purified GSK-3β as substrate", "format": "cell-based, human", "conditions": "LY 24 hours or perifosine 6 hours", "method": "Complemented FL activities were determined by bioluminescence imaging of intact cells while Akt phosphorylation status/kinase activities in cell lysates were determined by phosphorylation-specific western blotting and in vitro kinase assay using purified glycogen synthase kinase 3β (GSK-3β) as the substrate, respectively.\nTo measure Akt kinase activities, 200 μg of whole cell lysates were used in an in vitro Akt kinase assay using a Cell Signaling kit (Beverly, Mass.). Briefly, Akt was immunoprecipitated using the immobilized Akt antibody, followed by an in vitro kinase assay at 30° C. for 1 hour using 1 μg of the purified GSK-3β fusion protein as the substrate. The kinase reaction was terminated with 3× loading buffer and heated at 95° C. for 3 mins. […] Membranes were developed as described above. In all cases, band intensities were quantified by Image J (National Institute of Health, Bethesada, Md.)."}, "Akt kinase activity [2]": {"system": "Akt kinase activity", "assay": "Bioluminescence imaging of nude mice bearing 293T/AS1T and 293T/AS1A xenografts", "format": "in vivo", "conditions": "30 mg/kg", "method": "FIGS. 10a-10b illustrate the inhibition of Akt kinase activity by perifosine in living mice. FIG. 10a illustrates the efficacy of perifosine in inhibition of Akt kinase activity in living subjects was determined by bioluminescence imaging of nude mice bearing 293T/AS1A and 293T/AS1T xenografts. Mice were treated with 30 mg/kg of perifosine or carrier control at time 0 hour and re-imaged at 6, 15, 27 and 39 hours upon i.p. injection of D-Luciferin. FIG. 10b illustrate the max photons at each time point was normalized to that of carrier control treated mice and expressed as average normalized max photons+/−S.E.M. for each xenograft. It should be noted that p<0.05 relative to AS1A xenografts.\nTo determine if sufficient sensitivity for indirect imaging of Akt kinase activity has been achieved in living subjects, 293T/AS1T and 293T/AS1A cells were implanted at the lower left and right of nude mice for xenograft establishment. Since the bioluminescence signal from untreated 293T/AS1A cells was about 10-fold higher than that of 293T/AS1T cells in cell culture studies, 10% 293T/AS1A cells were mixed with 90% untransfected 293T cells (no FL activity) prior to implantation to normalize the signals to that of 293T/AS1T cells. Complemented FL activity in living mice was determined by bioluminescence imaging using a cooled coupled charged device (CCD) camera upon i.p. injection of D-luciferin. […] Perifosine was chosen over LY for these animal experiments since perifosine is water soluble and currently being evaluated in clinical trials. […] 6 hours of perifosine treatment led of a 20% decrease in complemented FL activity in 293T/AS1A but a 60% increase in complemented FL activity in 293T/AS1T relative to carrier control treated mice (p<0.05), corresponding to the 2-fold difference between AS1T and AS1A (FIG. 10b).\nAll of the animal handling was performed in accordance with Stanford University Animal Research Committee guidelines, Mice were gas anesthetized using isofluorane (2% isofluorane in 100% oxygen) during all injection and imaging procedures. Mice were imaged using a cooled CCD camera (Xenogen IVIS29; Xenogen Corp., Alameda, Calif.). […] To quantify the measured light, regions of interest were drawn over the area of the implanted cells, and the maximum photons/s/cm^2/steradian (sr) were obtained as validated previously. […] Max photons at time 6, 12 and 24 hours were normalized to that of time 0 hr for each individual mouse, and expressed as normalized average max photons±S.E.M."}, "[3]": {"assay": "Water solubility (statement)", "format": "physicochemical"}},
  "data": [
    {"smiles": "CCCCCCCCCCCCCCCCCCOP(=O)([O-])OC1CC[N+](C)(C)CC1", "note": "[perifosine]", "values": [
      {"measurement": "complemented FL activity", "setting": "Akt kinase activity [1]; 293T/AS1T at all time points (6, 12, 24 hours) and concentrations tested, compared to 293T/AS1A, p<0.05", "value": "dose-dependent increase"},
      {"measurement": "time of maximum increase in complemented FL activity", "setting": "Akt kinase activity [1]; 293T/AS1T cells", "value": 6, "unit": "h"},
      {"measurement": "complemented FL activity after washout (reversibility)", "setting": "Akt kinase activity [1]; 293T/AS1T, drug then carrier control, vs carrier control then drug or drug throughout, LY 50 μM 24+24 hours, perifosine 25 μM 6+6 hours", "value": "significantly lower"},
      {"measurement": "amount of phosphorylated GSK-3β", "setting": "Akt kinase; 293T/AS1A cells", "value": "decreased"},
      {"measurement": "amount of phosphorylated GSK-3β", "setting": "Akt kinase; 293T/AS1T cells, relative to carrier control", "value": "decreased"},
      {"measurement": "decrease in complemented FL activity", "setting": "Akt kinase activity [2]; 293T/AS1A xenografts, 6 hours, relative to carrier control treated mice", "value": 20, "unit": "%"},
      {"measurement": "complemented FL activity at later time points", "setting": "Akt kinase activity [2]; 293T/AS1T and 293T/AS1A xenografts, later than 6 hours, relative to carrier control, p>0.05", "value": "no significant difference"},
      {"measurement": "increase in complemented FL activity", "setting": "Akt kinase activity [2]; 293T/AS1T xenografts, 6 hours, relative to carrier control treated mice, p<0.05", "value": 60, "unit": "%"},
      {"measurement": "difference between AS1T and AS1A", "setting": "Akt kinase activity [2]; xenografts, 6 hours", "value": 2, "unit": "fold"},
      {"measurement": "water solubility", "setting": "[3]", "value": "water soluble"}
    ]}
  ]
}
